Data taken from patent US20130150399A1, “INHIBITORS OF THE UNFOLDED PROTEIN RESPONSE AND METHODS FOR THEIR USE” (The Board of Trustees of the Leland Stanford Junior …, priority 2006, published 2013).

Test system: HT1080 cells
Assay: Clonogenic survival (colony formation) assay, HT1080
Format: cell-based, human
Method: Several of the candidate irestatins were tested in a hypoxia clonogenic survival assay. […] HT1080 fibrosarcoma cells stably were treated with 1 uM of the indicated irestatin or left untreated, and incubated in hypoxia (0.01% oxygen) for 48 hrs at 37° C. Cells were harvested and counted, and allowed to form colonies under normal oxygen tension. Survival rate is expressed as the fraction of colonies formed divided by the total number of cells seeded for each condition. For all experiments, cells were plated in triplicate, and all experiments were repeated at least three times. These experiments were repeated using MiaPaCa2 cells in place of the HT1080 fibrosarcoma cells.
For hypoxia survival assays, cells were grown in 60 mm dishes until reaching at 50-70% confluence and shifted to hypoxia (0.1% O2) for 48 hrs. Cells were trypsinized, counted using a hemocytometer, and replated in triplicate at 1,000-20,000 cells per plate in normal culture medium. After 10-12 days of growth under normal oxygen conditions, colonies were stained with 0.2% crystal violet in ethanol and counted. Survival values are expressed as the number of colonies divided by the total number of cells seeded for each condition, normalized to the plating efficiency under normal oxygen conditions. At least three independent experiments were performed.
A. Effect of irestatin 9389 on PERK and ATF6 pathways. HT1080 cells were treated with vehicle alone (lanes 1-4) or 2.5 μM irestatin 9389 (lanes 5-8) and cultured under aerobic conditions for 18 hours (N) or shifted to hypoxia for the indicated times. Protein lysates were analyzed by Western blot analysis using antisera specific for ATF6 (top), CHOP/GADD153 (middle) or actin (bottom). […] Cells were harvested, counted, and allowed to grow under normal culture conditions for 11-12 days. […] D. Quantification of clonogenic survival assay. […] F. Quantification of TUNEL-positive cells. […] Cells were harvested at the indicated times and counted by hemocytometer. Values represent the mean calculated from triplicate experiments+/−SEM.

Cc1csc(NC(=O)CSc2nc3c(c(C(F)(F)F)c2C#N)CCC3)n1 [Compound 9389]
colony formation (2.5 μM, hypoxia for 48 hours): strongly inhibited colony formation
survival of HT1080 cells (colony formation) (2.5 μM, normal oxygen conditions): negligible effect on the survival
decrease in the rate of colony formation (exposure during hours 40-48 of hypoxia, data not shown): 8 fold
